Numbering of substitutions follows the chain as printed. Read-outs that look alike come from different tables or passages of the source.
Legend:
CYP1B1 S127A = target: T1, CYP1B1 S127A (Homo sapiens, UniProt Q16678, S127A); experiment: In cell CYP1B1 activity assay, S127A variant; settings: for logSI S127A: log of the ratio of IC50 values mutant vs WT (Fig. 3c)
T1 sequence (Q16678 1-543 S127A): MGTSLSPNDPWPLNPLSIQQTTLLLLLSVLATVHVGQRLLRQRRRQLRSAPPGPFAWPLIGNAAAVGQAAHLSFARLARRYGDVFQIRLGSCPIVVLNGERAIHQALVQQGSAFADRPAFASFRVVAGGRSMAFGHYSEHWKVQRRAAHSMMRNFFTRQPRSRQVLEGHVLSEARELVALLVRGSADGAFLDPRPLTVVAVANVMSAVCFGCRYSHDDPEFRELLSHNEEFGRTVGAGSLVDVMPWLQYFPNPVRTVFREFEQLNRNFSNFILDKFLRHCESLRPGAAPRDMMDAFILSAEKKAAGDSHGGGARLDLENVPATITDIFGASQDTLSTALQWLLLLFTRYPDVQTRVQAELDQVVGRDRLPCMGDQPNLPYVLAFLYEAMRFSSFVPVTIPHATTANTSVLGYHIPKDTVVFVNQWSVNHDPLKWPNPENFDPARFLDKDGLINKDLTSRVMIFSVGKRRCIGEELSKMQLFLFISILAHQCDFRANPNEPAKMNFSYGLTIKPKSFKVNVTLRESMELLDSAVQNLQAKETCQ
From the text: (§3) Site directed mutagenesis was used to probe the importance of specific active-site contacts identified through the structural assessment (Fig. 3a, b) and simulations. In all cases, conservative mutations were made to maintain polar or hydrophobic character and approximate size. The aromatic residues that frame the inhibitor binding site, Phe143 and Phe231, were mutated to Leu to determine the importance of the π interactions. In addition, the Ser127 residue, located in the upper corner of the active site on the B-C loop, was chosen for mutation based on the simulations. This amino acid transiently contacts the inhibitors, but also forms a hydrogen bond with Asp326 of the I-helix, and thus may impact the position of this helix with regards to the B-C loop. […] Rather than directly mutating these residues in the I-helix, neighboring residues Gln332 and Asp333 were targeted, with the hope of interrupting amino acid interactions that position the helix within the active site.
(§4) The ratio of IC50 values for the WT vs. the mutant are shown in Fig. 3c and reflects the importance of the specific contact; the log of the value is used to aid in visualization.
(§5) Cell lines were seeded onto Geltrex coated 96-well plates at 40,000 cells/well, and grown overnight in DMEM media containing 1 μg/mL tetracycline. The media was then replaced with Opti-MEM supplemented with 2% FBS and 1 μg/mL tetracycline. Compounds were serially diluted in Opti-MEM supplemented with 2% FBS and 1 μg/mL tetracycline and an equal volume of compound added to the cells (n = 3). Following a 1 h incubation, resorufin ethyl ether (REE; for CYP1B1 and 1A1) or dibenzylfluorescein (DBF; for 19A1) was added to the cells for a total concentration of 5 μM for REE and 1 μM for DBF. […] Dose–response curves were generated in Prism and normalized using the no-compound control (set as 100% activity) and the no-cell control (set as 0% activity; this value in the raw data reflects the background fluorescence of the dye alone).

CYP1B1 D333N = target: T2, CYP1B1 D333N (Homo sapiens, UniProt Q16678, D333N); experiment: In cell CYP1B1 activity assay, D333N variant; settings: for logSI D333N: log of the ratio of IC50 values mutant vs WT (Fig. 3c)
T2 sequence (Q16678 1-543 D333N): T1 sequence (Q16678 1-543 S127A) with A127S, D333N
From the text: as §3, §4, §5

[1] = test system: cytochrome P450 enzymes in pooled human liver microsomes; experiment: Inhibition of cytochrome P450 enzymes in pooled human liver microsomes (phLM); format: biochemical; settings: human, pooled human liver microsomes, pH 7.8, probe 7-benzoyloxy-4-trifluoromethylcoumarin, 50 µM; Dark; conversion of 7-benzoyloxy-4-trifluoromethylcoumarin
From the text: (§1) Pooled human liver microsomes were used to test the potential impact of the inhibitors on multiple polymorphisms of highly promiscuous, drug metabolizing CYPs[27]. There are more than 10 different CYPs in this preparation, and the use of pooled microsomes ensures that genetic variability in CYPs is represented. […] This is notable, as the liver CYPs have evolved to bind the widest possible variety of molecules.
(§2) Commercial preparations of pooled human liver microsomes come from 50 individuals, providing representation of biologically relevant CYP variants. Compounds were screened for inhibition of cytochrome P450 enzymes in phLMs using a 96-well kinetic assay. […] Compound stocks were diluted in dose–response, and added in 100 mM potassium phosphate buffer pH 7.8 with 50 µM 7-benzoyloxy-4-trifluoromethylcoumarin (Corning, prepared as a 10 mM DMSO stock) and 16 µg of phLMs (XenoTech, prepared as 20 mg protein/mL suspended in 250 mM sucrose) per well (n = 3). The compounds were incubated for 5 min in the absence of light at 25 °C. The 96-well plate was then either protected from light or irradiated with red light for 1 h (660 nm, 58.7 J/cm^2). Enzymatic turnover was initiated upon addition of NADPH (TCI, prepared immediately prior to addition) at a concentration 1.2 mM per well. To determine background fluorescence from the assay, NADPH was omitted from several control wells. The reactions were immediately placed in a SpectraFluor Plus plate reader (Tecan) preheated to 37 °C, and fluorescence measurements taken every 3 min for 120 min with excitation of 435 nm and emission of 525 nm. Fluorescence measurements in the […], and the data was processed with GraphPad Prism 6. The linear portion of the signal for each dose point with respect to time was first fitted to a line to determine the rate. The resulting slope of these lines was then plotted against the logarithmic concentration of the study compound to provide a dose–response curve.

[2] = Stability of compounds in rat liver microsomes; settings: for Remaining, % (NCF=60min): rat liver microsomes, no co-factor (no NADPH); for CLint scaled / Remaining, % (T=60min) / half-life / microsomal CLint: rat, liver microsomes
CYP1B1 S269A = target: T3, CYP1B1 S269A (Homo sapiens, UniProt Q16678, S269A); experiment: In cell CYP1B1 activity assay, S269A variant; settings: for logSI S269A: log of the ratio of IC50 values mutant vs WT (Fig. 3c)
T3 sequence (Q16678 1-543 S269A): T1 sequence (Q16678 1-543 S127A) with A127S, S269A
From the text: as §3, §4, §5

[3] = test system: cytochrome P450 enzymes in phLMs; experiment: Inhibition of cytochrome P450 enzymes in pooled human liver microsomes (phLM); format: biochemical; settings: for SI (1B1:phLM): ratio of IC50 phLM to CYP1B1, for complexes 4–6 IC50 (light); for enzyme activity pHLM: dark, scale 0–100
From the text: as §1, §2

[4] = Dark, conversion of 7-benzoyloxy-4-trifluoromethylcoumarin, read-out: IC50 phLM Dark
[5] = Light: 660 nm, 58.7 J/cm^2, read-out: IC50 phLM Light

Row | logSI S127A (CYP1B1 S127A) | logSI D333N (CYP1B1 D333N) | IC50 [1] | Remaining, % (NCF=60min) [2] | logSI S269A (CYP1B1 S269A) | Compound | SI (1B1:phLM) [3] | CLint scaled [2] | Remaining, % (T=60min) [2] | half-life [2] | microsomal CLint [2] | IC50 [3, 4] | IC50 [3, 5] | other results
1 | -1.5 | 2 | 11 µM | 63.7% | 0.3 | COc1cc(/C=C/c2ccc(OC)cc2OC)cc(OC)c1 [Compound 1, reference compound] |  |  |  |  |  |  |  | 
2 | 1.7 | 1.8 | 1.18 µM | 47.1% | 0 | COc1ccc(/C=C/c2ccncn2)c(OC)c1 [Compound 2] | 16 | 369 mL/min/kg | 0.3% | 6.75 min | 205 µL/min/mg |  |  | IC50 (CYP1B1 S127A): 3.74 µM; Ratio IC50 (mutant)/ IC50 (WT), S127A (CYP1B1 S127A): 50; IC50 (CYP1B1 D333N): 5 µM; Ratio IC50 (mutant)/ IC50 (WT), D333N (CYP1B1 D333N): 66; IC50 (CYP1B1 S269A): 0.073 µM; Ratio IC50 (mutant)/ IC50 (WT), S269A (CYP1B1 S269A): 1
3 |  |  |  |  |  | COc1ccc(/C=C/c2cc[n+]([Ru-4]345([n+]6ccccc6-c6cccc([n+]63)-c3cccc[n+]34)[n+]3c(cc(C(=O)[O-])c4ccccc43)-c3cc(C(=O)[O-])c4ccccc4[n+]35)cn2)c(OC)c1 [Compound 5] | ∼1750 |  |  |  |  | > 30 µM | ~30 µM | 
4 |  |  |  |  |  | COc1ccc(/C=C/c2cc[n+]([Ru-4]345([n+]6ccccc6-c6cccc([n+]63)-c3cccc[n+]34)[n+]3c(cc(C(=O)[O-])c4ccccc43)-c3cc(C(=O)[O-])c4ccccc4[n+]35)cc2)c(OC)c1 [Compound 6] | 4300 |  |  |  |  | ~30 µM | 1.28 µM | enzyme activity pHLM ([3]; Log conc 0.273001): 89.9976; enzyme activity pHLM ([3]; Log conc 0.875061): 84.6565; enzyme activity pHLM ([3]; Log conc 1.47712): 45.9092; enzyme activity pHLM ([3]; Log conc -0.329059): 93.178; enzyme activity pHLM ([3]; Log conc -0.931119): 88.2981; enzyme activity pHLM ([3]; Log conc -1.53318): 91.697; enzyme activity pHLM ([3]; Log conc -2.13524): 93.7121

Row | Compound | logSI S127A (CYP1B1 S127A) | logSI D333N (CYP1B1 D333N) | IC50 [1] | Remaining, % (NCF=60min) [2] | logSI S269A (CYP1B1 S269A) | SI (1B1:phLM) [3] | CLint scaled [2] | Remaining, % (T=60min) [2] | half-life [2] | microsomal CLint [2] | IC50 [3, 4] | IC50 [3, 5] | other results
5 | COc1ccc(C=Cc2ccncc2)c(OC)c1 [Compound 3] | 2.2 | 3.4 | 0.334 µM | 108.6% | 0.8 |  | 241 mL/min/kg | 1.4% | 10.4 min | 134 µL/min/mg |  |  | 
